Results from article PMC3578829, “A Small Molecule (Pluripotin) as a Tool for Studying Cancer Stem Cell Biology: Proof of Concept” (PLoS ONE, 2013).
“And” between values parts separate entries of the source, which are not always exact repeats. Identical values can stand only once.

Experiments:
COLO 205 = experiment: Limiting dilution tumorigenicity, s.c. xenograft without protein support; assay type: in vivo, NOD.SCID mice; design: key to Tumorigenicity: Y indicates increased tumor formation or increased time to appearance or both.; Y ^%: Y indicates increased tumor formation when Matrigel was co-injected
Experimental: (§1) Five day exposures were conducted.
(§2) Six week old female NOD.SCID mice were randomly assigned to each of 20 treatment arms (n = 5/group). Treated and control colon tumor lines were enzymatically harvested and counted prior to dilution in RPMI 1640 (at 10, 100, 1,000, 10,000 cells/inoculum) for subcutaneous injection into the axillary region using a volume of […]. Positive control groups were established such that tumor formation occurred in all mice in approximately one week thus confirming that all tumor lines studied were tumorigenic. Cell inocula for the positive control groups ranged from 1×10^6 to 2.5×10^6. Cell viability of the cell stocks was assessed by trypan blue exclusion prior to dilution for injection and was routinely found to be >95%. Tumor formation was monitored weekly using caliper measurements and the tumor mass was calculated as weight in mg = 1/2×(tumor length)×(tumor width)^2. All experiments were terminated at 120 days or when tumor weight exceeded 2000 mg for any individual mouse. In selected studies, tumor cells were resuspended in Matrigel (50% concentration, BD Biosciences) prior to injection.

HCC-2998 = experiment: as above; assay type: in vivo, NOD.SCID mice; design: key to Tumorigenicity: Y indicates increased tumor formation or increased time to appearance or both.; Y ^%: Y indicates increased tumor formation when Matrigel was co-injected
Experimental: as §1, §2

HCT-116 = experiment: as above; assay type: in vivo, NOD.SCID mice; design: key to Tumorigenicity: Y indicates increased tumor formation or increased time to appearance or both.; Y ^%: Y indicates increased tumor formation when Matrigel was co-injected
Experimental: as §1, §2

HT29 = experiment: as above; assay type: in vivo, NOD.SCID mice; design: key to Tumorigenicity: Y indicates increased tumor formation or increased time to appearance or both.; Y ^%: Y indicates increased tumor formation when Matrigel was co-injected
Experimental: as §1, §2

colon tumor lines = experiment: Cloning assay, all colon tumor lines; assay type: cell-based
Experimental: Culture dishes were transferred to a refrigerator (4°C) for 15 min, to room temperature for 10 min, and then to culture incubators. An upper layer of 0.5 ml culture medium was applied on day 0. Cultures were stained with MTT (1 mg/ml) for visualization and imaging at multiple time intervals (day 7 and 14). Cumulative counts of colonies (diameters, >60 µm) and cumulative volumes of CFU (diameters >120 µm) were determined with an Omnicon FAS-II (Bausch & Lomb, Rochester, NY) following calibration with an Omnicon test plate 3 and polystyrene microspheres embedded in soft agar matrix. The evaluable region of each culture dish (35 contiguous fields equivalent to 51% of the cell layer culture volume) was analyzed. Selective scoring of viable cell groups was achieved by adjustment of the instrument detection threshold to exclude images of nonstained cellular material and debris. The data was analyzed with Lotus Symphony software.

Aurora kinase B = Aurora kinase B (Homo sapiens, UniProt Q96GD4); experiment: In vitro kinase inhibition assay (same assay as RSK2); assay type: biochemical
Chain of Aurora kinase B (Q96GD4 whole entry, species assumed, the tested form may be a part): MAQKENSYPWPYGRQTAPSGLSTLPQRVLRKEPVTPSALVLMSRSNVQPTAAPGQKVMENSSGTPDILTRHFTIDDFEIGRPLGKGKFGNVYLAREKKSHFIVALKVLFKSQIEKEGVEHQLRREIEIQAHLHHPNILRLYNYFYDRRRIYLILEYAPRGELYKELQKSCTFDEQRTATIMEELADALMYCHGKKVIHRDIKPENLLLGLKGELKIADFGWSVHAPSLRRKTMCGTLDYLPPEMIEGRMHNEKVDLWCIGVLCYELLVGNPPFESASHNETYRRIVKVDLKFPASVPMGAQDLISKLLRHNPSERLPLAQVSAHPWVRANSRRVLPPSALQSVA
Experimental: (§3) RSK2 (90 kD ribosomal S6 kinase), a kinase with both a N- and C-terminal functional domains, phosphorylates multiple targets and is phosphorylated by ERK1/2, another SC-1 target. As a downstream effector, RSK2 signals many cellular behaviors including cell survival, growth, proliferation, and migration. […] Potential inhibitory activity of SC-1 on a random selection of other protein kinases (Aurora kinase B, CHK1, and CHK2) was also evaluated in the same assay and no effect was found (Figure 4A). To determine if activity of related (to RSK2) protein kinases in the AGC kinase family was inhibited by SC-1, further studies were conducted (Table 3). […] Because SC-1 inhibited these selected kinases in the micromolar range and the kinase assay is distinct from the one reporting data in Figure 4A, the positive EC50 value for Abl1 kinase was reported in Table 3 as well. These findings were consistent with predictions reported by Okram et al..
(§4) The RSK2 in vitro kinase inhibition assay utilized was a modification of protocols established by Nguyen et al.. Additional protocols that confirmed the results depicted in Figure 4 and evaluated kinase inhibitory activity in a random selection of protein kinases (Table 3) were conducted at Reaction Biology Corporation (Malvern, PA). This was a miniaturized ^33P-based screening assay.

CHK1 = CHK1 (Homo sapiens, UniProt O14757); experiment: as above; assay type: biochemical
Chain of CHK1 (O14757 whole entry, species assumed): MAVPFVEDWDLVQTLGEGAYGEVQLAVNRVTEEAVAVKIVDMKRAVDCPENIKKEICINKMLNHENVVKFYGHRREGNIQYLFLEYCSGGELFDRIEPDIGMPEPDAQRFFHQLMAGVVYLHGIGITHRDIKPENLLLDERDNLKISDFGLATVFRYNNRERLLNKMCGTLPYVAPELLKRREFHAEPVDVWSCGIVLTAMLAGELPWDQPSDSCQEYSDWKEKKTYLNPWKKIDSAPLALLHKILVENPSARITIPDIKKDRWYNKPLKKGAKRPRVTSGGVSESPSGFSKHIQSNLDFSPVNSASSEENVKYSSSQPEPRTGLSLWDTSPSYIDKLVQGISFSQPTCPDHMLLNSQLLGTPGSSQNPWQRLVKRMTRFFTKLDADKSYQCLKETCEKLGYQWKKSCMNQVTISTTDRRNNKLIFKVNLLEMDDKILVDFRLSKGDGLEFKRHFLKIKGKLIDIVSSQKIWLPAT
Experimental: as §3, §4

CHK2 = CHK2 (Homo sapiens, UniProt O96017); experiment: as above; assay type: biochemical
Experimental: as §3, §4

Abl1 = target: T1, Abl1 (Homo sapiens, UniProt P00519); experiment: Miniaturized 33P-based kinase screening assay; assay type: biochemical; details: max 10 µM, 3-fold serial dilution, n = 2
T1 construct: purchased Reaction Biology Corporation (Malvern, PA), contract assay
T1 sequence (P00519 whole entry): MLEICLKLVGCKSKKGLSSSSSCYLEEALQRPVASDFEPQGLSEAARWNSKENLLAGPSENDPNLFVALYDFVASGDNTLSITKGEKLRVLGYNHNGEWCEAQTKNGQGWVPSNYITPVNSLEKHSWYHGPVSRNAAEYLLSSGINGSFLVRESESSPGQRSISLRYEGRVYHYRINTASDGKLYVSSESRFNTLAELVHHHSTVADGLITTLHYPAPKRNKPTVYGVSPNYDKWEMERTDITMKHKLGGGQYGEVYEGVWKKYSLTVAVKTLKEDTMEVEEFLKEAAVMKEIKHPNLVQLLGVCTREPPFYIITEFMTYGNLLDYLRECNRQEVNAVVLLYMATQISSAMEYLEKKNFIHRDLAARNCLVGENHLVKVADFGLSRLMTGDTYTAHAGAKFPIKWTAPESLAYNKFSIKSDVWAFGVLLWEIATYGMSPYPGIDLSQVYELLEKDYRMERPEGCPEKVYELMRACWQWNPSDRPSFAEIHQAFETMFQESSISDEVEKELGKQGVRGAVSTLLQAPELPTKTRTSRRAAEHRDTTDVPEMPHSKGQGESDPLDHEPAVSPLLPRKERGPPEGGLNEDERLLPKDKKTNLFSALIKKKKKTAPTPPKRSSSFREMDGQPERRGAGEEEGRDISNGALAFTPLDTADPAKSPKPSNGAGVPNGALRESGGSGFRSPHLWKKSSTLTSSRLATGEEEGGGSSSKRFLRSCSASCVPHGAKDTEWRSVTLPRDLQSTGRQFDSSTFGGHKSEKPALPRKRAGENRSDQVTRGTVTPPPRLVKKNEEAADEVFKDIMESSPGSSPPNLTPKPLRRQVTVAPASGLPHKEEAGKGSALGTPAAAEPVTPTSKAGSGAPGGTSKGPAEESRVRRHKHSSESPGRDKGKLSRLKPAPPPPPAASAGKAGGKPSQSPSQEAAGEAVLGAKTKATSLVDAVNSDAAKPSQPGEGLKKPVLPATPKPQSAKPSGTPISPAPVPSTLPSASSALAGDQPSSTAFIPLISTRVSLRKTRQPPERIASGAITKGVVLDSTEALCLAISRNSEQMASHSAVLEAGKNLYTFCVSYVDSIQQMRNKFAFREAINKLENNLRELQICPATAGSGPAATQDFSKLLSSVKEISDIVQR
Experimental: as §4

PIM1 = target: T2, PIM1 (Homo sapiens, UniProt P11309); experiment: Miniaturized 33P-based kinase screening assay; assay type: biochemical; details: max 10 µM, 3-fold serial dilution, n = 2
T2 construct: purchased Reaction Biology Corporation (Malvern, PA), contract assay
T2 sequence (P11309 whole entry): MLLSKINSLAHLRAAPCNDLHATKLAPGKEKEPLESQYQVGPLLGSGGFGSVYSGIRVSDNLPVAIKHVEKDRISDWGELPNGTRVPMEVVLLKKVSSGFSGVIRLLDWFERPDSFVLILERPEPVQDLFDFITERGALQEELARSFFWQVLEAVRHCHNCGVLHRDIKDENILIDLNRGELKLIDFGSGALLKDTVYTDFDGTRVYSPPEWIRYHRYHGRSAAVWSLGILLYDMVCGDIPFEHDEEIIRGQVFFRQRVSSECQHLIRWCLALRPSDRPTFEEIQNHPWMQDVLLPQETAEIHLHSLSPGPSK
Experimental: as §4

PLK2 = target: T3, PLK2 (Homo sapiens, UniProt Q9NYY3); experiment: Miniaturized 33P-based kinase screening assay; assay type: biochemical; details: max 10 µM, 3-fold serial dilution, n = 2
T3 construct: purchased Reaction Biology Corporation (Malvern, PA), contract assay
T3 sequence (Q9NYY3 whole entry): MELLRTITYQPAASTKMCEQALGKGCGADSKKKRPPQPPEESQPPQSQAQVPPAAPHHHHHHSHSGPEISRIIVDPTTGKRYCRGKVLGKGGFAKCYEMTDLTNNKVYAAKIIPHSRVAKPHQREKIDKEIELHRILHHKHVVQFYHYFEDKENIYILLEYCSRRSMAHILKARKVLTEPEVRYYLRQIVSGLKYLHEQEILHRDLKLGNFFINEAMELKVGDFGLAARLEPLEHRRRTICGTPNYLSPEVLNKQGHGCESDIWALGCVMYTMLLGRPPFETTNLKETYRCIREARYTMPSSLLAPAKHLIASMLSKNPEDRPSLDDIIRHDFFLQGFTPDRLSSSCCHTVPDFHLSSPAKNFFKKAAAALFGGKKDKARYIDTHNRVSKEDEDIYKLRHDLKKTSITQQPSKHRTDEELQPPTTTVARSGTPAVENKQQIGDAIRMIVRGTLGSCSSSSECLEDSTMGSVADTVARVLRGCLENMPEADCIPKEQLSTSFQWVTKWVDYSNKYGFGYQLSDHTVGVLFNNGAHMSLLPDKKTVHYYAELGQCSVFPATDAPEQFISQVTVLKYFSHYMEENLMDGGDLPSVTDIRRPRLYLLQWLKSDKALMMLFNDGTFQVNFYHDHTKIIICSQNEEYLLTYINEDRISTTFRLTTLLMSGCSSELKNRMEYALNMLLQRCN
Experimental: as §4

RSK1 = target: T4, RSK1 (Homo sapiens, UniProt Q15418); experiment: Miniaturized 33P-based kinase screening assay; assay type: biochemical; details: max 10 µM, 3-fold serial dilution, n = 2
T4 construct: purchased Reaction Biology Corporation (Malvern, PA), contract assay
Experimental: as §4

RSK2 = RSK2 (Homo sapiens, UniProt P51812); experiment: Miniaturized 33P-based kinase screening assay; assay type: biochemical; details: max 10 µM, 3-fold serial dilution, n = 2
Experimental: as §4

RSK3 = target: T5, RSK3 (Homo sapiens, UniProt Q15349); experiment: Miniaturized 33P-based kinase screening assay; assay type: biochemical; details: max 10 µM, 3-fold serial dilution, n = 2
T5 construct: purchased Reaction Biology Corporation (Malvern, PA), contract assay
T5 sequence (Q15349 whole entry): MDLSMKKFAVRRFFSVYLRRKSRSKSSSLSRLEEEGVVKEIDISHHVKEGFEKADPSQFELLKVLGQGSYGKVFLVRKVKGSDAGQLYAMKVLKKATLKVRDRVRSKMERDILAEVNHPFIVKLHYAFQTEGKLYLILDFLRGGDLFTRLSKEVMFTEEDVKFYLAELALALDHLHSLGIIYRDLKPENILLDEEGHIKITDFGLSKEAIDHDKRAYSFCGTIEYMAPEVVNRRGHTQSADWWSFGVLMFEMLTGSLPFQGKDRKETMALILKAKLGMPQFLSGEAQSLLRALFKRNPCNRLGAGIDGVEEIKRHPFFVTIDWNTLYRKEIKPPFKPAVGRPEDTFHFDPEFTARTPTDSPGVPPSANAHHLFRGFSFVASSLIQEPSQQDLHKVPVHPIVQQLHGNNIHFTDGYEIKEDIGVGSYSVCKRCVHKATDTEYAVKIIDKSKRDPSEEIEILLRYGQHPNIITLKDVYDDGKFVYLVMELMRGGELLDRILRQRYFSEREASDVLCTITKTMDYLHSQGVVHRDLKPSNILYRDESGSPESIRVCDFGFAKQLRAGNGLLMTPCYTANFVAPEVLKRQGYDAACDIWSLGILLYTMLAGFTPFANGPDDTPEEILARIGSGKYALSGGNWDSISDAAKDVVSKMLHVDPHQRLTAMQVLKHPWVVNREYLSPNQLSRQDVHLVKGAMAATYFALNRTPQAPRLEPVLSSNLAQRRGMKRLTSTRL
Experimental: as §4

RSK4 = target: T6, RSK4 (Homo sapiens, UniProt Q9UK32); experiment: Miniaturized 33P-based kinase screening assay; assay type: biochemical; details: max 10 µM, 3-fold serial dilution, n = 2
T6 construct: purchased Reaction Biology Corporation (Malvern, PA), contract assay
T6 sequence (Q9UK32 whole entry): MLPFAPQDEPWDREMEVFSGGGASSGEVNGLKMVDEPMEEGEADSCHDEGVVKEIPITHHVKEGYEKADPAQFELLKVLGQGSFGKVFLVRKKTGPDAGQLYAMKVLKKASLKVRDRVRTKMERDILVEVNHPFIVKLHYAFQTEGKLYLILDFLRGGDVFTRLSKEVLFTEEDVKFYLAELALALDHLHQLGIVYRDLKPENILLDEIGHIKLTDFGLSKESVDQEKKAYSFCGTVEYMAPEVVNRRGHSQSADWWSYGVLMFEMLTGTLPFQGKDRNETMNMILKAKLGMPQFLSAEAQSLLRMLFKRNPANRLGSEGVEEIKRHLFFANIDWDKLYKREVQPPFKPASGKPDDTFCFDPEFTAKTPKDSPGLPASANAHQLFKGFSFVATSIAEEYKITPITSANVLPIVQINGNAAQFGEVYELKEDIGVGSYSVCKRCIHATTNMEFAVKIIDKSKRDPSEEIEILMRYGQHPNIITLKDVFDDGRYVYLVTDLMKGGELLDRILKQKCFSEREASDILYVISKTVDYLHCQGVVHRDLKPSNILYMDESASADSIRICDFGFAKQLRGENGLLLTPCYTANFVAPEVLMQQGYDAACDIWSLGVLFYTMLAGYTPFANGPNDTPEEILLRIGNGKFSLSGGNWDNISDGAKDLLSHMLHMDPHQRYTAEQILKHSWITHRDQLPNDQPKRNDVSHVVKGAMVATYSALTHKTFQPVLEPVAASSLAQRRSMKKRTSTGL
Experimental: as §4

p70S6K = target: T7, p70S6K (Homo sapiens, UniProt P23443); experiment: Miniaturized 33P-based kinase screening assay; assay type: biochemical; details: max 10 µM, 3-fold serial dilution, n = 2
T7 construct: purchased Reaction Biology Corporation (Malvern, PA), contract assay
T7 sequence (P23443 whole entry): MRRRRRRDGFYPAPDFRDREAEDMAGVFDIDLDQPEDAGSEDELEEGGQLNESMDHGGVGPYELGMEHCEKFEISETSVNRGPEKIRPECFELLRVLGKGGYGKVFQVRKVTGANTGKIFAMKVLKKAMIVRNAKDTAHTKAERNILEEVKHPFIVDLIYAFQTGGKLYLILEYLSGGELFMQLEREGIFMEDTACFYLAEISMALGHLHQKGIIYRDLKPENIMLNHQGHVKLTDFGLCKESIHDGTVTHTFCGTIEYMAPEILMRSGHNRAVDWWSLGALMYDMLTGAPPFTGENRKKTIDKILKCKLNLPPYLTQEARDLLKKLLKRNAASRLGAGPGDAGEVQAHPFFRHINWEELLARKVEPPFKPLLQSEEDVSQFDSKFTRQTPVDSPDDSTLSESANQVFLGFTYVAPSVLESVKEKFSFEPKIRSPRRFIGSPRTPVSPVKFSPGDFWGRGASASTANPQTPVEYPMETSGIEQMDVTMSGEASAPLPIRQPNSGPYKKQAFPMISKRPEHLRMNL
Experimental: as §4

Inhibitory activity on kinase (Aurora kinase B): no effect
Inhibitory activity on kinase (CHK1): no effect
Inhibitory activity on kinase (CHK2): no effect
IC50 (Abl1): 0.005 µM
IC50 (PIM1): ≥ 10 µM
IC50 (PLK2): 2.2 µM
IC50 (RSK1): 0.5 µM
IC50 (RSK2): 2.5 µM
IC50 (RSK3): 3.3 µM
IC50 (RSK4): 10 µM
IC50 (p70S6K): 1.4 µM
Compound: Cc1cc(Nc2ncc3c(n2)N(C)C(=O)N(c2cc(NC(=O)c4cccc(C(F)(F)F)c4)ccc2C)C3)n(C)n1 [SC-1]
Tumorigenicity (COLO 205; COLO 205, summary of SC-1 effects): Y
Tumor take rate (COLO 205; COLO 205 treated 5 days with 0.1 µM SC-1, 100 cells inoculated s.c.): 0/5
Tumor take rate (COLO 205; COLO 205 treated 5 days with 0.1 µM SC-1, 1000 cells inoculated s.c.): 1/5
Tumor take rate (COLO 205; COLO 205 treated 5 days with 0.1 µM SC-1, 10000 cells inoculated s.c.): 4 of 5 and 4/5
Calculated Time to 1000 mg Tumor Volume (COLO 205; COLO 205 treated 5 days with 0.1 µM SC-1, 10,000 cells/inoculum, extrapolated from fitted line): 101 days
Tumorigenicity (HCC-2998; HCC-2998, summary of SC-1 effects): Y
Tumor take rate (HCC-2998; HCC-2998 treated 5 days with 0.1 µM SC-1, 100 cells inoculated s.c.): 0/5
Tumor take rate (HCC-2998; HCC-2998 treated 5 days with 0.1 µM SC-1, 1000 cells inoculated s.c.): 0/5
Tumor take rate (HCC-2998; HCC-2998 treated 5 days with 0.1 µM SC-1, 10000 cells inoculated s.c.): 2/5
Calculated Time to 1000 mg Tumor Volume (HCC-2998; HCC-2998 treated 5 days with 0.1 µM SC-1, 10,000 cells/inoculum, extrapolated from fitted line): 139 days
Tumorigenicity (HCT-116; HCT-116, summary of SC-1 effects): Y
Tumor take rate (HCT-116; HCT-116 treated 5 days with 0.1 µM SC-1, 100 cells inoculated s.c.): 0/5
Tumor take rate (HCT-116; HCT-116 treated 5 days with 0.1 µM SC-1, 1000 cells inoculated s.c.): 2/5
Tumor take rate (HCT-116; HCT-116 treated 5 days with 0.1 µM SC-1, 10000 cells inoculated s.c.): 5/5
Calculated Time to 1000 mg Tumor Volume (HCT-116; HCT-116 treated 5 days with 0.1 µM SC-1, 10,000 cells/inoculum, extrapolated from fitted line): 45 days
Tumorigenicity (HT29; HT29, summary of SC-1 effects): Y
Tumor take rate (HT29; HT29 treated 5 days with 0.1 µM SC-1, 100 cells inoculated s.c.): 2 of 5 and 2/5
Tumor take rate (HT29; HT29 treated 5 days with 0.1 µM SC-1, 1000 cells inoculated s.c.): 3/5@
Tumor take rate (HT29; HT29 treated 5 days with 0.1 µM SC-1, 10000 cells inoculated s.c.): 5/5
Calculated Time to 1000 mg Tumor Volume (HT29; HT29 treated 5 days with 0.1 µM SC-1, 10,000 cells/inoculum, extrapolated from fitted line): 32 days
Cloning efficiency, all tumor lines (colon tumor lines; assay conducted using Matrigel instead of soft agar (data not shown)): increased cloning efficiency
Tumor lines with statistically significant increases in cumulative colony forming unit (CFU) mass (colon tumor lines; soft agar, 0.1 µM SC-1 for five days, vs control treated cells): 5/7
